From patent US12612412B2, “Antiviral heterocyclic compounds” (Enanta Pharmaceuticals, Inc., priority 2021, dated 2026)
pEC50: −log10 of the molar value. Like-named read-outs stand apart in the source and are kept apart here.

Experiments:
[1] = test system: HMPV clinical isolate TN/1501/A1; assay: HMPV antiviral assay Method-B (clinical isolate TN/1501/A1 in LLC-MK2 cells, ATP-Lite readout); format: cell-based, Human metapneumovirus (HMPV); settings: hMPV WT1501 (clinical isolate TN/1501/A1), 6 days
Procedure, shortened: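 LLC-MK2 cells infected in suspension with TN/1501/A1 at MOI 0.014 in serum-free medium with 2 μg/mL TPCK-trypsin (final), incubated 6 days at 37° C. Compounds tested in duplicate, 10-point 3-fold dilutions from 10 μM. Cell health read by ATP-Lite luminescence, normalised to virus-only and cells-only controls; EC50 by four-parameter logistic fit.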

[2] = test system: genotype A, "Long" strain RSV; assay: RSV-A assay (CPE protection in Hep-2 cells, ATPlite readout); format: cell-based, Human respiratory syncytial virus (HRSV); settings: RSV-A Long strain, MOI 0.1, CPE protection, read-out: Human RSV-A (“Long”) EC50
Procedure, shortened: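 ATPlite luminescence (cellular ATP) served as the measure of cell health after 5 days of infection. Hep-2 cells at 8,000 per well received duplicate 2-fold compound dilutions plus virus at MOI 0.1, and EC50 was calculated from CPE protection.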

[3] = human metapneumovirus, LLC-MK2, 144 h
[4] = human respiratory syncytial virus

SMILES	pEC50 [1, 3]	pEC50 [2, 4]	pEC50 [1]	pEC50 [2]
COc1cc(C(=O)NC[C@](O)(c2cc3c(c(-c4c(F)cc(Cl)cc4F)n2)OC[C@]3(C)C(N)=O)C2CC2)cc2cn(C(F)F)nc12 [Example 1156]	> 6.30	> 6.70		
COc1cc(C(=O)NC[C@](O)(c2cc3c(c(-c4c(F)cc(Cl)cc4F)n2)OC[C@]3(C)C(N)=O)C2CC2)cc2cn(C3(F)CC3)nc12 [Example 1157]	> 6.30	> 6.70		
C[C@]1(C(N)=O)COc2c1cc([C@@](O)(CNC(=O)c1cc(Cl)c3nn(C4CC4)cc3c1)C1CC1)nc2-c1c(F)cc(Cl)cc1F [Example 1158]	> 6.30	> 6.70		
COc1cc(C(=O)NC[C@](O)(c2cc3c(c(-c4c(F)cc(Cl)cc4F)n2)OC[C@]3(C)C(N)=O)C2CC2)cc2cc(Cl)c(C)nc12 [Example 1159]	> 6.30	> 6.70		
COc1cc(C(=O)NC[C@](O)(c2nc(-c3ccc(F)c(Cl)c3F)c3c(c2F)[C@@](C)(C(N)=O)CO3)C2CC2)cc2cn(C3CC3)nc12 [Example 1160]	> 6.30	> 6.70		
COc1cc(C(=O)NC[C@](O)(c2nc(-c3ccc(F)c(Cl)c3F)c3c(c2F)[C@@](C)(C(N)=O)CO3)C2CC2)cc2cn(C(F)F)nc12 [Example 1161]	> 6.30	> 6.70		
COc1cc(C(=O)NC[C@](O)(c2nc(-c3cc(Cl)c(F)cc3F)c3c(c2F)[C@@](C)(C(N)=O)CO3)C2CC2)cc2cn(C(F)F)nc12 [Example 1162]	> 6.30	> 6.70		
COc1cc(C(=O)NC[C@](O)(c2cc3c(c(-c4c(F)ccc(Cl)c4F)n2)OC[C@]3(C)C(N)=O)C2CC2)cc2cn(C3CC3)nc12 [Example 1163]	> 6.30	> 6.70		
COc1cc(C(=O)NC[C@](O)(c2cc3c(c(-c4c(F)ccc(Cl)c4F)n2)OC[C@]3(C)C(N)=O)C2CC2)cc2cn(C(F)F)nc12 [Example 1164]	> 6.30	> 6.70		
COc1cc(C(=O)NC[C@](O)(c2cc3c(c(-c4c(F)ccc(Cl)c4F)n2)OC[C@]3(C)C(N)=O)C2CC2)cc2cn(C3(F)CC3)nc12 [Example 1165]	> 6.30	> 6.70		
C[C@]1(C(N)=O)COc2c1cc([C@@](O)(CNC(=O)c1cc(Cl)c3nn(C4CC4)cc3c1)C1CC1)nc2-c1c(F)ccc(Cl)c1F [Example 1166]	> 6.30	> 6.70		
C[C@]1(C(N)=O)COc2c1cc([C@@](O)(CNC(=O)c1ccc3nn(C4CC4)cc3c1)C1CC1)nc2-c1c(F)ccc(Cl)c1F [Example 1167]	> 6.30	> 6.70		
COc1cc(C(=O)NC[C@](O)(c2cc3c(c(-c4c(F)ccc(Cl)c4F)n2)OC[C@]3(C)C(N)=O)C2CC2)cc2cc(Cl)c(C)nc12 [Example 1168]	> 6.30	> 6.70		
COc1cc(C(=O)NC[C@](O)(c2cc3c(c(-c4c(F)ccc(Cl)c4F)n2)OC[C@]3(C)C(N)=O)C2CC2)cc2cc(Br)c(C)nc12 [Example 1169]	> 6.30	> 6.70		
COc1cc(C(=O)NC[C@](O)(c2cc3c(c(-c4ccc(F)cc4)n2)OC[C@]3(C)C(=O)NCC(C)(C)O)C(F)(F)F)cc2cn(C3CC3)nc12 [Example 1170]	< 6.30	> 6.70		
COc1cc(C(=O)NC[C@](O)(c2cc3c(c(-c4cc(F)c(Cl)cc4F)n2)OC[C@]3(C)C(N)=O)C2CC2)cc2cn(C3CC3)nc12 [Example 1177]	> 6.30	> 6.70		
COc1cc(C(=O)NC[C@](O)(c2cc3c(c(-c4cc(F)c(Cl)cc4F)n2)OC[C@]3(C)C(N)=O)C2CC2)cc2cn(C(F)F)nc12 [Example 1178]	> 6.30	> 6.70		
C[C@]1(C(N)=O)COc2c1cc([C@@](O)(CNC(=O)c1cc(Cl)c3nn(C4CC4)cc3c1)C1CC1)nc2-c1cc(F)c(Cl)cc1F [Example 1179]	> 6.30	> 6.70		
COc1cc(C(=O)NC[C@](O)(c2cc3c(c(-c4cc(F)c(Cl)cc4F)n2)OC[C@]3(C)C(N)=O)C2CC2)cc2cn(C3(F)CC3)nc12 [Example 1180]	> 6.30	> 6.70		
Cc1cnc2c(Cl)cc(C(=O)NC[C@](O)(c3cc4c(c(-c5cc(F)c(Cl)cc5F)n3)OC[C@]4(C)C(N)=O)C3CC3)cc2c1 [Example 1181]	> 6.30	> 6.70		
COc1cc(C(=O)NC[C@](O)(c2cc3c(c(-c4cc(F)c(Cl)cc4F)n2)OC[C@]3(C)C(N)=O)C2CC2)cc2cc(Cl)c(C)nc12 [Example 1182]	> 6.30	> 6.70		
Cc1cnc2c(OC(F)F)cc(C(=O)NC[C@](O)(c3cc4c(c(-c5cc(F)c(Cl)cc5F)n3)OC[C@]4(C)C(N)=O)C3CC3)cc2c1 [Example 1183]	> 6.30	> 6.70		
COc1cc(C(=O)NC[C@](O)(c2cc3c(c(-c4ccc(F)c(F)c4Cl)n2)OC[C@]3(C)C(N)=O)C2CC2)cc2cc(Br)c(C)nc12 [Example 1184]	> 6.30	> 6.70		
COc1cc(C(=O)NC[C@](O)(c2cc3c(c(-c4ccc(F)c(Cl)c4F)n2)OC[C@]3(C)C(N)=O)C2CC2)cc2cc(Br)c(Cl)nc12 [Example 1185]	> 6.30	> 6.70		
Cc1nc2c(Cl)cc(C(=O)NC[C@](O)(c3cc4c(c(-c5ccc(F)c(F)c5Cl)n3)OC[C@]4(C)C(N)=O)C3CC3)cc2cc1Cl [Example 1186]	> 6.30	> 6.70		

Now from value to molecule:

pEC50 [1, 3]	pEC50 [2, 4]	pEC50 [1]	pEC50 [2]	SMILES
> 6.30	> 6.70			Cc1cnc2c(Cl)cc(C(=O)NC[C@](O)(c3cc4c(c(-c5ccc(F)c(F)c5Cl)n3)OC[C@]4(C)C(N)=O)C3CC3)cc2c1 [Example 1187]
> 6.30	> 6.70			COc1cc(C(=O)NC[C@](O)(c2cc3c(c(-c4cc(Cl)ccc4F)n2)OC[C@]3(C)C(N)=O)C2CC2)cc2cn(C(F)F)nc12 [Example 1188]
> 6.30	> 6.70			COc1cc(C(=O)NC[C@](O)(c2cc3c(c(-c4cc(Cl)ccc4F)n2)OC[C@]3(C)C(N)=O)C2CC2)cc2cc(Br)c(C)nc12 [Example 1189]
> 6.30	> 6.70			CNC(=O)[C@@]1(C)COc2c1cc([C@@](O)(CNC(=O)c1cc(OC)c3nn(C4CC4)cc3c1)C(F)(F)F)nc2-c1ccc(F)cc1 [Example 1190]
> 6.30	> 6.70			CNC(=O)[C@@]1(C)COc2c1cc([C@@](O)(CNC(=O)c1cc(OC)c3nn(C(F)F)cc3c1)C(F)(F)F)nc2-c1ccc(F)cc1 [Example 1191]
< 6.30	> 6.70			C[C@]1(C(N)=O)COc2c1cc([C@@](O)(CNC(=O)c1cc(OC3CC3)c3nc(Cl)ccc3c1)C(F)(F)F)nc2-c1ccc(F)cc1 [Example 1192]
< 6.30	> 6.70			C[C@]1(C(N)=O)COc2c1cc([C@@](O)(CNC(=O)c1cc(OC3CC3)c3nc(Cl)ccc3c1)C1CC1)nc2-c1ccc(F)cc1 [Example 1193]
< 6.30	> 6.70			C[C@]1(C(N)=O)COc2c1cc([C@@](O)(CNC(=O)c1cc(OC3CC3)c3nc(Cl)ccc3c1)C1CC1)nc2-c1ccc(F)c(F)c1Cl [Example 1194]
> 6.30	> 6.70			COc1cc(C(=O)NC[C@](O)(c2cc3c(c(-c4ccc(F)c(F)c4Cl)n2)OC[C@]3(C)C(N)=O)C2CC2)cc2cc(C)cnc12 [Example 1195]
< 6.30	> 6.70			COc1cc(C(=O)NC[C@](O)(c2cc3c(c(-c4ccc(F)c(F)c4Cl)n2)OC[C@]3(C)C(N)=O)C2CC2)cc2ccc(C)nc12 [Example 1196]
< 6.30	> 6.70			COc1cc(C(=O)NC[C@](O)(c2cc3c(c(-c4ccc5c(c4)OC(F)(F)C(F)(F)O5)n2)OC[C@]3(C)C(N)=O)C(F)(F)F)cc2cn(C3CC3)nc12 [Example 1218]
		< 6.30	> 6.70	COc1cc(C(=O)NC[C@@](O)(c2cc3c(c(-c4ccc5c(c4)OC(F)(F)C(F)(F)O5)n2)OC[C@]3(C)C(N)=O)C(F)(F)F)cc2cn(C3CC3)nc12 [Example 1219]
	> 6.70	> 6.30		COc1cc(C(=O)NC[C@](O)(c2cc3c(c(-c4cc(Br)c(F)cc4F)n2)OC[C@]3(C)C(N)=O)C(F)(F)F)cc2cn(C3CC3)nc12 [Example 1223]
< 6.30	> 6.70			COc1cc(C(=O)NC[C@@](O)(c2cc3c(c(-c4cc5c(cc4Cl)OC(F)(F)O5)n2)OC[C@]3(C)C(N)=O)C(F)(F)F)cc2cn(C3CC3)nc12 [Example 1226]
> 6.30	> 6.70			COc1cc(C(=O)NC[C@](O)(c2cc3c(c(-c4cc5c(cc4Cl)OC(F)(F)O5)n2)OC[C@]3(C)C(N)=O)C(F)(F)F)cc2cn(C3CC3)nc12 [Example 1227]
< 6.30	> 6.70			COc1cc(C(=O)NC[C@](O)(c2cc3c(c(C4=CCC(F)(F)CC4)n2)OC[C@]3(C)C(N)=O)C(F)(F)F)cc2cn(C3CC3)nc12 [Example 1228]
< 6.30	< 6.70			COc1cc(C(=O)NC[C@@](O)(c2cc3c(c(C4=CCC(F)(F)CC4)n2)OC[C@]3(C)C(N)=O)C(F)(F)F)cc2cn(C3CC3)nc12 [Example 1229]
< 6.30	< 6.70			COc1cc(C(=O)NC[C@@](O)(c2cc3c(c(-c4cc5c(cc4Cl)OC(F)(F)O5)n2)OC[C@]3(C)C(N)=O)C2CC2)cc2cn(C3CC3)nc12 [Example 1230]
> 6.30	> 6.70			COc1cc(C(=O)NC[C@](O)(c2cc3c(c(-c4cc5c(cc4Cl)OC(F)(F)O5)n2)OC[C@]3(C)C(N)=O)C2CC2)cc2cn(C3CC3)nc12 [Example 1231]
